Results on 15 molecules are retold here after US20260306460A1, “COMPOSITION FOR REMOVING AND INHIBITING SENESCENT CELLS, AND USES THEREOF” (LIFECEUTIX CO., LTD., priority 2023, published 2026).

Like-named read-outs stand apart in the source and are kept apart here.

Common to all, as to format: in vivo, mouse
Test [1] has as its system doxorubicin-induced aged C57BL6J mice. Kind of test: Liver damage (AST, ALT) in doxorubicin-aged mice, Example 22-8, Table 37. Particulars: serum, amount after aging calculated as 100%.
Procedure: Eight-week-old male C57BL6J mice (KRIBB Laboratory Animal Resource Center) were acclimated to the experimental environment for one week. […] The aging-induced mice were randomly assigned to experimental and control groups. […] The control group received only the solution in the same volume.
The amounts were measured spectrophotometrically using a kit (Sigma) according to the manufacturer's instructions. […] The amount of each factor after aging was calculated as 100% and compared with the amount of each factor after treatment with the test compound.
The test system is the same in test [2]. Kind of test: Kidney damage (urea, creatinine, Agtr1a mRNA) in doxorubicin-aged mice, Example 22-9, Table 38. Particulars: amount after aging calculated as 100%; for Creatinine / Urea: serum. How it is done: (§1) Eight-week-old male C57BL6J mice (KRIBB Laboratory Animal Resource Center) were acclimated to the experimental environment for one week. Afterwards, the anticancer agent doxorubicin was administered intraperitoneally at a concentration of 10 mg/kg, inducing aging for more than 10 days. The aging-induced mice were randomly assigned to experimental and control groups. LX-403 was mixed with a 10% ethanol solution of PEG400 and administered orally at a concentration of 25 mg/kg or intradermally at a concentration of 1 μM for 21 days. LX-1801 was mixed in distilled water with 4% DMSO, 30% PEG300, and 5% Tween80 and administered intradermally at a concentration of 0.4 μM daily for 21 days. LX-2001 was mixed in PBS and administered intradermally at a concentration of 2 μM daily for 21 days. LX-2002 was mixed in distilled water with 4% DMSO, 30% PEG300, and 5% Tween80 and administered intradermally at a concentration of 2 μM daily for 21 days. […] LX-2005 was mixed in distilled water with 4% DMSO, 30% PEG300, and 5% Tween80 and administered intradermally at a concentration of 90 μM daily for 21 days. LX-2007 was mixed in distilled water with 4% DMSO, 30% PEG300, and 5% Tween80 and administered intradermally at a concentration of 90 μM daily for 21 days. […] LX-3002 was mixed in distilled water with 4% DMSO, 30% PEG300, and 5% Tween80 and administered orally at a concentration of 10 mg/kg daily for 21 days. […] LX-5411 was mixed in 5% phosphate-buffered saline (PBS) and administered orally at a concentration of 10 mg/kg daily for 21 days or intradermally at a concentration of 3 μM. LX-5701 was mixed in PBS and administered orally at a concentration of 360 mg/kg daily for 21 days. LX-6807 was mixed in saline and administered intraperitoneally at a concentration of 1 mg/kg daily for 21 days. The control group received only the solution in the same volume. After the end of drug administration, the methods described in each example below were performed.
The amounts of urea and creatinine, markers of kidney damage, were measured spectrophotometrically in serum collected from mice using the same method as in Examples 7-8 of WO2023-085787 A1. […] The amount of each factor after aging was calculated as 100% and compared with the amount of each factor after treatment with the test compound.

For test [3] the test system is unchanged. Kind of test: Hair loss area in doxorubicin-aged mice, Example 22-11, Table 40. The method, then: as §1
Alopecia is one of the most troubling side effects of chemotherapy, for which there is currently no treatment. Hair loss in mice induced to age by the anticancer drug was quantified using imaging software such as ImageJ (NIH) from digital photographs taken using a fixed camera position and magnification.

For test [4], the system named is carbon tetrachloride-induced liver fibrosis C57BL6J mice. The experiment in a line: Carbon tetrachloride liver disease in mice (p16, IL6, Col1a1 mRNA, AST), Example 26, Table 50. Particulars: daily for 21 days, untreated 100%; for Col1a1 mRNA / IL6 mRNA / p16 mRNA: liver. How it is done:
Eight-week-old male C57BL6J mice (KRIBB Laboratory Animal Resource Center) were acclimated to the experimental environment for one week. Carbon tetrachloride (CCL4) was administered intraperitoneally at a concentration of 0.5 μl/g, and aging was induced for at least six weeks. The aging-induced mice were randomly assigned to experimental and control groups. […] The control group received only the solution in the same volume. After the drug administration was terminated, mice were sacrificed, and RNA was extracted from the liver in the same manner as in Example 7-2 of WO2023-085787 A1, and qRT-PCR was performed using the synthesized cDNA. […] The mRNA and AST amounts after aging was induced were calculated as 100% and compared with the mRNA amount of p16 after treatment with the test compound.

Test [5] has as its system bleomycin-induced pulmonary fibrosis mice. Kind of test: Bleomycin-induced pulmonary fibrosis mice, Example 31, Table 56. The following applies: untreated = 100%. Put shortly: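 After treatment with test compound or vehicle alone, lungs of bleomycin-induced pulmonary fibrosis mice were harvested. Total RNA extracted and gene expression quantified by qRT-PCR.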
The test system of test [6] is carbon tetrachloride-induced liver fibrosis mice. Kind of test: Carbon tetrachloride-induced liver fibrosis mice, Example 31, Table 57. The following applies: CCl4-induced liver fibrosis mice, untreated = 100%. An outline of the steps: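 Mice with induced hepatic fibrosis received either the test compound or, as controls, an equal volume of vehicle solution alone. Once dosing ended, liver tissue was harvested and total RNA was isolated. cDNA was synthesized from this RNA, and quantitative RT-PCR was run on it to measure hepatic mRNA levels of the fibrosis- and senescence-related genes.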

[7] abbreviates: doxorubicin-induced aged mice, untreated 100 (±15.4).

`Cc1cccc([C@H](C)c2cnc[nH]2)c1C` [LX-6807, Dexmedetomidine]: in test [1], the ALT is reported as 80 (±6.7) % and the AST is listed as 75 (±7.0) %. For the same molecule, in test [2], the “Agtr1a mRNA” value is reported as 43 (±3.0) %, the Creatinine is 73 (±2.7) % and the Urea is 72 (±5.8) %. Besides, the “Relative area of hair loss” value in test [3] (setting [7]) is reported as 59 (±3.2) %. In test [4], the “Col1a1 mRNA” value is listed as 51 (±3.1) %, the “IL6 mRNA” value was 58 (±2.6) %, the “p16 mRNA” value is on record as 67 (±3.0) % and the “Serum AST” value was 75 (±1.4) %.

For `C[C@H]1[C@H](C)CC[C@]2(C(=O)O)CC[C@]3(C)C(=CC[C@@H]4[C@@]5(C)C[C@@H](O)[C@H](O)C(C)(C)[C@@H]5CC[C@]43C)[C@H]12` [LX-2002, Corosolic acid], in test [3] (setting [7]), the “Relative area of hair loss” value is 83 (±10.4) %.

Consider `C[C@H]1[C@H](C)CC[C@]2(C(=O)O)CC[C@]3(C)C(=CC[C@@H]4[C@@]5(C)CC[C@H](O)C(C)(C)[C@@H]5CC[C@]43C)[C@H]12` [LX-2001, Ursolic acid], for which, in test [3] (setting [7]), the “Relative area of hair loss” value is 80 (±6.9) %.

Regarding `CC1(C)CC[C@]2(C(=O)O)CC[C@]3(C)C(=CC[C@@H]4[C@@]5(C)CC[C@H](O)C(C)(C)[C@@H]5CC[C@]43C)[C@@H]2C1` [LX-2003, Oleanolic acid], the “Relative area of hair loss” value in test [3] (setting [7]) was 79 (±6.7) %.

As to `C#CC(=O)N1[C@@H](CCCC)Cc2cc(OC)ccc2[C@@H]1c1ccc(NC23CC4CC(CC(C4)C2)C3)cc1` [LX-5411], in test [3] (setting [7]), the “Relative area of hair loss” value is 77 (±4.1) %. Also, in test [5], the “Lung p16 mRNA” value is 61 (±13.2) % and the “Col1a1 mRNA” value is given as 44 (±11.1) %. Also, in test [6], the “Liver p16 mRNA” value is 53 (±9.9) % and the “Col1a1 mRNA” value is given as 43 (±16.1) %.

Take `CC1(C)CC[C@]2(NC(=O)C(C)(F)F)CC[C@]3(C)[C@H](C(=O)C=C4[C@@]5(C)C=C(C#N)C(=O)C(C)(C)[C@@H]5CC[C@]43C)[C@@H]2C1` [LX-2101, Omaveloxolone]: in test [3], the “Relative area of hair loss” value is reported as 79 (±3.9) %.

Consider `C=C(C)[C@@H]1CC[C@]2(C(=O)O)CC[C@]3(C)[C@H](CC[C@@H]4[C@@]5(C)CC[C@H](O)C(C)(C)[C@@H]5CC[C@]43C)[C@@H]12` [LX-2005, Betulinic acid], for which, in test [3] (setting [7]), the “Relative area of hair loss” value is recorded as 82 (±4.6) %.

Turning to `CC1(C)C=C2[C@H]3CC[C@@H]4[C@@]5(C)CCC(=O)C(C)(C)[C@@H]5CC[C@@]4(C)[C@]3(C)CC[C@@]2(C(=O)O)CC1` [LX-2007, Moronic acid], the “Relative area of hair loss” value in test [3] (setting [7]) is recorded as 86 (±2.9) %.

As for `O=C1C2CCN(CC2)C1CNC(=O)C(F)(F)F` (centres unmarked) [LX-5701], in test [1], the ALT is on record as 64 (±15.7) % and the AST is given as 72 (±13.5) %. Further, in test [2], the “Agtr1a mRNA” value is on record as 60 (±10.4) %, the Creatinine was 80 (±5.0) % and the Urea was 75 (±5.9) %. In addition, the “Relative area of hair loss” value in test [3] (setting [7]) is reported as 67 (±17.8) %. Further, in test [4], the “Col1a1 mRNA” value is 62 (±6.7) %, the “IL6 mRNA” value was 53 (±17.6) %, the “p16 mRNA” value is on record as 70 (±6.2) % and the “Serum AST” value is reported as 77 (±8.0) %.

On to Tocofersolan [LX-3001], for which, in test [2], the “Agtr1a mRNA” value is listed as 70 (±5.8) %, the Creatinine is reported as 85 (±4.4) % and the Urea is reported as 76 (±2.8) %. Further, in test [4], the “Col1a1 mRNA” value is on record as 71 (±2.4) %, the “IL6 mRNA” value is given as 65 (±3.4) %, the “p16 mRNA” value is 76 (±3.7) % and the “Serum AST” value was 82 (±4.5) %.

Take `S=C(N/N=C1\CCCc2cccnc21)N1CCN(c2ccccn2)CC1` [LX-801]: in test [5], the “Lung p16 mRNA” value was 48 (±4.8) % and the “Col1a1 mRNA” value is 43 (±10.6) %. Moreover, in test [6], the “Liver p16 mRNA” value is 57 (±9.3) % and the “Col1a1 mRNA” value was 63 (±11.5) %.

For `O=C(C(C[N+](=O)[O-])=NO)N1CCN(C(c2ccc(Cl)cc2)c2ccc(Cl)cc2)CC1` [LX-403], the “Relative area of hair loss” value in test [3] (setting [7]) is recorded as 76 (±5.5) %. Besides, in test [5], the “Lung p16 mRNA” value was 32 (±1.4) % and the “Col1a1 mRNA” value is 44 (±3.1) %. Besides, in test [6], the “Liver p16 mRNA” value is 51 (±3.8) % and the “Col1a1 mRNA” value is 48 (±5.8) %.

`COC(=O)[C@H]1Cc2c([nH]c3ccccc23)[C@H](c2ccc(S(C)(=O)=O)cc2)N1C(=O)CCl` [LX-5401, methyl (1S,3R)-2-(2-chloroacetyl)-1-(4-(methylsulfonyl)phenyl)-2,3,4,9-tetrahydro-1H-pyrido[3,4-b]indole-3-carboxylate]: in test [5], the “Lung p16 mRNA” value is 67 (±8.1) % and the “Col1a1 mRNA” value is 59 (±12.8) %. In test [6], the “Liver p16 mRNA” value is listed as 61 (±13.2) % and the “Col1a1 mRNA” value is reported as 72 (±5.9) %.

For the molecule `CCCC\C=C/C=C/C=C\CCCCCCCC(=O)O` [LX-2707, Punicic acid], in test [1], the ALT was 76 (±5.6) % and the AST was 70 (±3.2) %. For the same molecule, in test [2], the “Agtr1a mRNA” value is listed as 62 (±3.8) %, the Creatinine is given as 75 (±5.3) % and the Urea is on record as 80 (±3.3) %. Besides, in test [4], the “Col1a1 mRNA” value is 76 (±2.5) %, the “IL6 mRNA” value is 56 (±2.1) %, the “p16 mRNA” value was 68 (±1.6) % and the “Serum AST” value is listed as 79 (±5.6) %.

As for `C[C@@H]1CC[C@@]23C[C@H](O)C(=O)[C@@]2(O)[C@]1(C)[C@H](OC(=O)CCl)C[C@@H](C1=CCn2c(=O)n(-c4ccccc4)c(=O)n2C1)[C@@H]3C` [LX-1801, (2S,3aS,4S,5R,7R,8S,8aS,11R)-7-(1,3-Dioxo-2-phenyl-2,3,5,8-tetrahydro-1H-[1,2,4]triazolo[1,2-a]pyridazin-6-yl)-2,3a-dihydroxy-4,8,11-trimethyl-3-oxooctahydro-1H-4,8a-propanoazulen-5-yl 2-Chloroacetate], in test [3] (setting [7]), the “Relative area of hair loss” value is reported as 78 (±5.4) %. For the same molecule, in test [5], the “Lung p16 mRNA” value is 53 (±13.7) % and the “Col1a1 mRNA” value is recorded as 38 (±20.8) %. Further, in test [6], the “Liver p16 mRNA” value is reported as 55 (±9.8) % and the “Col1a1 mRNA” value is given as 58 (±7.9) %.
